In ChEMBL document CHEMBL5104192, “Late-Stage Functionalization with Cysteine Staples Generates Potent and Selective Melanocortin Receptor-1 Agonists” (J Med Chem, 2022):
*1 amine or outer side, *2 acyl side, *3 side chain or, on linkers, in order; H or OH if unused. Where a SMILES comes first, the peptide text is derived from it. Bridges are numbered along the chain shown (N, C = ends). [ ]: non-standard residue; d: D form. X4 = C#CCCCCN1C(=O)C([*:1])=C([*:2])C1=O; X3 = NC(=O)/C(=C(\C(=O)O)[*:2])[*:1]; mXylylene = c1cc(C[*:1])cc(C[*:2])c1; oXylylene = c1ccc(C[*:2])c(C[*:1])c1; NMeR = CN[C@@H](CCCNC(=N)N)C(=O)O; CH2COCH2 = O=C(C[*:1])C[*:2]; X1 = n1nc([*:2])nnc1[*:1]; Nle = CCCC[C@H](N)C(=O)O; X7 = C(C[*:1])C[*:2]

Columns and labels:
[1] = molecular target: T1, Melanocortin receptor 3 (Homo sapiens, UniProt P41968); assay: Displacement of [125I]-NDP-alpha-MSH from human MC3R expressed in HEK2936E cell membrane measured after 16 to 23 hrs by 1450 microbeta trilux scintillation proximity assay; assay type: cell membranes; conditions: for pKi: hek2936e
[2] = molecular target: Melanocortin receptor 5 (Homo sapiens, UniProt P33032); assay: Agonist activity at human MC5R expressed in HEK2936E cells assessed as cAMP production in presence of IBMX by time resolved fluorescence assay; assay type: functional, cell-based
[3] = molecular target: T1, Melanocortin receptor 3; assay: Agonist activity at human MC3R expressed in HEK2936E cells assessed as cAMP production in presence of IBMX by time resolved fluorescence assay; assay type: functional, cell-based; conditions: for pEC50: hek2936e
[4] = molecular target: T2, Melanocyte-stimulating hormone receptor (Homo sapiens, UniProt Q01726); assay: Agonist activity at human MC1R expressed in HEK2936E cells assessed as cAMP production in presence of IBMX by time resolved fluorescence assay; assay type: functional, cell-based; conditions: for pEC50: hek2936e
[5] = molecular target: T2, Melanocyte-stimulating hormone receptor; assay: Displacement of [125I]-NDP-alpha-MSH from human MC1R expressed in HEK2936E cell membrane measured after 16 to 23 hrs by 1450 microbeta trilux scintillation proximity assay; assay type: cell membranes; conditions: for pKi: hek2936e
[6] = organism: Homo sapiens; assay: Selectivity ratio of Ki for human MC3R to Ki for human MC1R
[7] = molecular target: T3, Melanocortin receptor 4 (Homo sapiens, UniProt P32245); assay: Agonist activity at human MC4R expressed in HEK2936E cells assessed as cAMP production in presence of IBMX by time resolved fluorescence assay; assay type: functional, cell-based; conditions: for pEC50: hek2936e
[8] = organism: Homo sapiens; assay: Selectivity ratio of EC50 for human MC4R to EC50 for human MC1R
[9] = organism: Homo sapiens; assay: Selectivity ratio of Ki for human MC4R to Ki for human MC1R
[10] = organism: Homo sapiens; assay: Selectivity ratio of EC50 for human MC3R to EC50 for human MC1R
[11] = molecular target: T3, Melanocortin receptor 4; assay: Displacement of [125I]-NDP-alpha-MSH from human MC4R expressed in HEK2936E cell membrane measured after 16 to 23 hrs by 1450 microbeta trilux scintillation proximity assay; assay type: cell membranes; conditions: for pKi: hek2936e

T2 sequence (Q01726 whole entry): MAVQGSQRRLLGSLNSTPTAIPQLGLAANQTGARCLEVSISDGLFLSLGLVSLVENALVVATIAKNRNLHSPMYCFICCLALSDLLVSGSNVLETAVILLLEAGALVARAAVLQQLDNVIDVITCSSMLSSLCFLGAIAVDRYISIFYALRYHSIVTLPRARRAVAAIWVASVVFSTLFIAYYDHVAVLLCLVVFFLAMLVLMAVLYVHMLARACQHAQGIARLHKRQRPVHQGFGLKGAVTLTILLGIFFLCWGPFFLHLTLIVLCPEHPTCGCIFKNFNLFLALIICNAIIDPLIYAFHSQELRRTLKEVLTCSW
Sequence of Melanocortin receptor 5 (P33032 whole entry): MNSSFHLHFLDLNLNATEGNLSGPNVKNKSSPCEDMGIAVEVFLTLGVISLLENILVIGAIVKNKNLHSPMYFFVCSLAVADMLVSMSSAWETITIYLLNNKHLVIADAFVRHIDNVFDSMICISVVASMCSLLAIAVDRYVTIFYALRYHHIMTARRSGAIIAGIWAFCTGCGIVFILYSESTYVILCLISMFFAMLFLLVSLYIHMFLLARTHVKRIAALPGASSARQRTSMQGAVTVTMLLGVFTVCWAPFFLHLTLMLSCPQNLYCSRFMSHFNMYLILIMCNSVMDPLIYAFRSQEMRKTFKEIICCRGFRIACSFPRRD
T1 sequence (P41968 whole entry): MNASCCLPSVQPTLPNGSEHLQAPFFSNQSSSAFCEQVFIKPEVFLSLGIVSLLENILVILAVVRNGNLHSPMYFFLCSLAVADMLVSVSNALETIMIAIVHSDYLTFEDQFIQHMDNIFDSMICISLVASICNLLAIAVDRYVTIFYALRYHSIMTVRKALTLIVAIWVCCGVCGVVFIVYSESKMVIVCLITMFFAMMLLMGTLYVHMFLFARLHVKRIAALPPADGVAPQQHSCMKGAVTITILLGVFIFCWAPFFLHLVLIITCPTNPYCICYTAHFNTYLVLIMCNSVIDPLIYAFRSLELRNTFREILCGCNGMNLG
T3 sequence (P32245 whole entry): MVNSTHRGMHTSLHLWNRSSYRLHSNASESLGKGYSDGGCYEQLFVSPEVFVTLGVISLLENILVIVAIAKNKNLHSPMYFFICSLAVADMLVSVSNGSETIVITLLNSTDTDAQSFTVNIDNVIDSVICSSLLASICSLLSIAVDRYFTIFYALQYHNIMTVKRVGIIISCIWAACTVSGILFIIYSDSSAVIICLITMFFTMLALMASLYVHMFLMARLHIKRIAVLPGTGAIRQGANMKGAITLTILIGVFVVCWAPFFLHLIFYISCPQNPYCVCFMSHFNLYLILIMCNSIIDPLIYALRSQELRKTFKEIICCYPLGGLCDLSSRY

Row | Ratio Ki [6] | Ki [1] | EC50 [7] | Ratio EC50 [8] | Ratio Ki [9] | Ratio EC50 [10] | Ki [11] | EC50 [3] | EC50 ([4]; read-out: pEC50 (converted)) | Ki [5] | EC50 ([4]; read-out: EC50) | SMILES | pKi [1] | pEC50 [2] | pEC50 [3] | pEC50 [4] | pKi [5] | pEC50 [7] | pKi [11]
1 | – | – | – | – | – | – | – | – | – | – | – | CC[C@H](C)[C@@H]1NC(=O)[C@@H]2CCCN2C(=O)[C@H](Cc2c[nH]c3ccccc23)NC(=O)[C@H](CCCNC(=N)N)N(C)C(=O)[C@H](Cc2ccccc2)NC(=O)[C@H](Cc2cnc[nH]2)NC(=O)[C@H]([C@@H](C)O)NC(=O)[C@H](NC(C)=O)CCSCc2ccc(cc2)CSCC[C@H](C(N)=O)NC1=O | 4.89 | 4.71 | 6.3 | 8.4 | 7 | – | –
2 | 11 | 23.4 nM | 7.24 nM | 13 | 21 | 1 | 43.7 nM | 0.692 nM | 0.55 nM | 2.09 nM | – | CCCC[C@@H]1NC(=O)[C@@H]2CSCC(=O)CSC[C@H](NC(=O)[C@H](CCCNC(=N)N)NC(=O)[C@H](CC(=O)O)NC(=O)[C@H](Cc3c[nH]c4ccccc34)NC(=O)[C@H](CCCNC(=N)N)NC(=O)[C@H](Cc3ccccc3)NC(=O)[C@H](Cc3cnc[nH]3)NC(=O)CNC1=O)C(=O)N[C@@H](Cc1cnc[nH]1)C(=O)N[C@@H](Cc1ccccc1)C(=O)N[C@@H](CCCNC(=N)N)C(=O)N[C@@H](Cc1c[nH]c3ccccc13)C(=O)N[C@@H](CCCNC(=N)N)C(=O)N2 (cyclo(CHFRWRC[Nle]GHFRWDR); linker 1-7 via CH2COCH2) | – | – | – | – | – | – | –
3 | 9 | 16.6 nM | 2.19 nM | 27 | 35 | 2 | 61.7 nM | 0.158 nM | 0.0813 nM | 1.78 nM | – | C#CCCCCN1C(=O)C2=C(SC[C@@H]3NC(=O)[C@H](CCCNC(=N)N)NC(=O)[C@H](CC(=O)O)NC(=O)[C@H](Cc4c[nH]c5ccccc45)NC(=O)[C@H](CCCNC(=N)N)NC(=O)[C@H](Cc4ccccc4)NC(=O)[C@H](Cc4cnc[nH]4)NC(=O)CNC(=O)[C@H](CCCC)NC(=O)[C@H](CS2)NC(=O)[C@H](CCCNC(=N)N)NC(=O)[C@H](Cc2c[nH]c4ccccc24)NC(=O)[C@H](CCCNC(=N)N)NC(=O)[C@H](Cc2ccccc2)NC(=O)[C@H](Cc2cnc[nH]2)NC3=O)C1=O (cyclo(CHFRWRC[Nle]GHFRWDR); linker 1-7 via X4) | – | – | – | – | – | – | –
4 | 30 | 295 nM | 11.2 nM | 23 | 31 | 5 | 302 nM | 2.57 nM | 0.479 nM | 9.77 nM | – | CCCC[C@@H]1NC(=O)[C@@H]2CS/C(C(=O)O)=C(/C(N)=O)SC[C@H](NC(=O)[C@H](CCCNC(=N)N)NC(=O)[C@H](CC(=O)O)NC(=O)[C@H](Cc3c[nH]c4ccccc34)NC(=O)[C@H](CCCNC(=N)N)NC(=O)[C@H](Cc3ccccc3)NC(=O)[C@H](Cc3cnc[nH]3)NC(=O)CNC1=O)C(=O)N[C@@H](Cc1cnc[nH]1)C(=O)N[C@@H](Cc1ccccc1)C(=O)N[C@@H](CCCNC(=N)N)C(=O)N[C@@H](Cc1c[nH]c3ccccc13)C(=O)N[C@@H](CCCNC(=N)N)C(=O)N2 (cyclo(CHFRWRC[Nle]GHFRWDR); linker 1-7 via X3) | – | – | – | – | – | – | –
5 | 15 | 19.5 nM | 2.88 nM | 20 | 34 | 2 | 44.7 nM | 0.302 nM | 0.141 nM | 1.32 nM | – | CCCC[C@@H]1NC(=O)[C@@H]2CSCCCSC[C@H](NC(=O)[C@H](CCCNC(=N)N)NC(=O)[C@H](CC(=O)O)NC(=O)[C@H](Cc3c[nH]c4ccccc34)NC(=O)[C@H](CCCNC(=N)N)NC(=O)[C@H](Cc3ccccc3)NC(=O)[C@H](Cc3cnc[nH]3)NC(=O)CNC1=O)C(=O)N[C@@H](Cc1cnc[nH]1)C(=O)N[C@@H](Cc1ccccc1)C(=O)N[C@@H](CCCNC(=N)N)C(=O)N[C@@H](Cc1c[nH]c3ccccc13)C(=O)N[C@@H](CCCNC(=N)N)C(=O)N2 (cyclo(CHFRWRC[Nle]GHFRWDR); linker 1-7 via X7) | – | – | – | – | – | – | –
6 | 15 | 11 nM | 1.78 nM | 40 | 47 | 4 | 33.9 nM | 0.182 nM | 0.0447 nM | 0.724 nM | 0.004 nM | CCCC[C@@H]1NC(=O)[C@@H]2CSc3nnc(nn3)SC[C@H](NC(=O)[C@H](CCCNC(=N)N)NC(=O)[C@H](CC(=O)O)NC(=O)[C@H](Cc3c[nH]c4ccccc34)NC(=O)[C@H](CCCNC(=N)N)NC(=O)[C@H](Cc3ccccc3)NC(=O)[C@H](Cc3cnc[nH]3)NC(=O)CNC1=O)C(=O)N[C@@H](Cc1cnc[nH]1)C(=O)N[C@@H](Cc1ccccc1)C(=O)N[C@@H](CCCNC(=N)N)C(=O)N[C@@H](Cc1c[nH]c3ccccc13)C(=O)N[C@@H](CCCNC(=N)N)C(=O)N2 (cyclo(CHFRWRC[Nle]GHFRWDR); linker 1-7 via X1) | – | – | – | – | – | – | –
7 | 83 | 9120 nM | 302 nM | 103 | 12 | 66 | 1290 nM | 195 nM | 2.95 nM | 110 nM | – | CC[C@H](C)[C@@H]1NC(=O)[C@@H]2CCCN2C(=O)[C@H](Cc2c[nH]c3ccccc23)NC(=O)[C@H](CCCNC(=N)N)N(C)C(=O)[C@H](Cc2ccccc2)NC(=O)[C@H](Cc2cnc[nH]2)NC(=O)[C@H]([C@@H](C)O)NC(=O)[C@@H](NC(C)=O)CSCc2cccc(c2)CSC[C@@H](C(N)=O)NC1=O (Ac-CTHF[NMeR]WPIC-NH2; linker 1-9 via mXylylene) | – | – | – | – | – | – | –
8 | 191 | 12300 nM | 398 nM | 212 | 33 | 58 | 2140 nM | 295 nM | 1.86 nM | 64.6 nM | – | CC[C@H](C)[C@@H]1NC(=O)[C@@H]2CCCN2C(=O)[C@H](Cc2c[nH]c3ccccc23)NC(=O)[C@H](CCCNC(=N)N)N(C)C(=O)[C@H](Cc2ccccc2)NC(=O)[C@H](Cc2cnc[nH]2)NC(=O)[C@H]([C@@H](C)O)NC(=O)[C@@H](NC(C)=O)CSCc2ccccc2CSC[C@@H](C(N)=O)NC1=O (Ac-CTHF[NMeR]WPIC-NH2; linker 1-9 via oXylylene) | – | – | – | – | – | – | –

Row | SMILES | Ratio Ki [6] | Ki [1] | EC50 [7] | Ratio EC50 [8] | Ratio Ki [9] | Ratio EC50 [10] | Ki [11] | EC50 [3] | EC50 ([4]; read-out: pEC50 (converted)) | Ki [5] | EC50 ([4]; read-out: EC50) | pKi [1] | pEC50 [2] | pEC50 [3] | pEC50 [4] | pKi [5] | pEC50 [7] | pKi [11]
9 | CC[C@H](C)[C@@H]1NC(=O)[C@@H]2CCCN2C(=O)[C@H](Cc2c[nH]c3ccccc23)NC(=O)[C@H](CCCNC(=N)N)N(C)C(=O)[C@H](Cc2ccccc2)NC(=O)[C@H](Cc2cnc[nH]2)NC(=O)[C@H]([C@@H](C)O)NC(=O)[C@H](NC(C)=O)CCSSCC[C@H](C(N)=O)NC1=O | 110 | – | – | 10 | 5 | 40 | – | – | – | – | – | 5.2 | 5.38 | 6.72 | 8.32 | 7.24 | 7.32 | 6.53
10 | CC[C@H](C)[C@@H]1NC(=O)[C@@H]2CCCN2C(=O)[C@H](Cc2c[nH]c3ccccc23)NC(=O)[C@H](CCCNC(=N)N)N(C)C(=O)[C@H](Cc2ccccc2)NC(=O)[C@H](Cc2cnc[nH]2)NC(=O)[C@H]([C@@H](C)O)NC(=O)[C@H](NC(C)=O)CCSCc2cccc(c2)CSCC[C@H](C(N)=O)NC1=O | 170 | – | – | 110 | 9 | 219 | – | – | – | – | – | 5.08 | 4.78 | 6.42 | 8.79 | 7.31 | 6.72 | 6.34
11 | CC[C@H](C)[C@@H]1NC(=O)[C@@H]2CCCN2C(=O)[C@H](Cc2c[nH]c3ccccc23)NC(=O)[C@H](CCCNC(=N)N)N(C)C(=O)[C@H](Cc2ccccc2)NC(=O)[C@H](Cc2cnc[nH]2)NC(=O)[C@H]([C@@H](C)O)NC(=O)[C@H](NC(C)=O)CCSCc2ccccc2CSCC[C@H](C(N)=O)NC1=O | 191 | – | – | 85 | 17 | 214 | – | – | – | – | – | 4.88 | 4.82 | 6.34 | 8.67 | 7.16 | 6.74 | 5.93
